In the Kinase Knowledgebase extract (Sharma et al. 2016) one finds IC50 data, which are given here for nine compounds.

The structures appear in SMILES notation. A value given as a limit tells only on which side of the number the result lay.

One assay deals with PIK3CB (Human) (UniProt P42338). As to the kind of experiment: Assessment of PIK3CB Kinase Activity.
A further assay deals with PIK3CD (Human) (UniProt O00329). As to the kind of experiment: Assessment of PIK3CD Kinase Activity.
The target of another assay is PIK3CA (human) (UniProt P42336). As to the kind of experiment: Assessment of PIK3CA Kinase Activity.
PIK3CA (human), sequence (P42336 whole entry, looked up): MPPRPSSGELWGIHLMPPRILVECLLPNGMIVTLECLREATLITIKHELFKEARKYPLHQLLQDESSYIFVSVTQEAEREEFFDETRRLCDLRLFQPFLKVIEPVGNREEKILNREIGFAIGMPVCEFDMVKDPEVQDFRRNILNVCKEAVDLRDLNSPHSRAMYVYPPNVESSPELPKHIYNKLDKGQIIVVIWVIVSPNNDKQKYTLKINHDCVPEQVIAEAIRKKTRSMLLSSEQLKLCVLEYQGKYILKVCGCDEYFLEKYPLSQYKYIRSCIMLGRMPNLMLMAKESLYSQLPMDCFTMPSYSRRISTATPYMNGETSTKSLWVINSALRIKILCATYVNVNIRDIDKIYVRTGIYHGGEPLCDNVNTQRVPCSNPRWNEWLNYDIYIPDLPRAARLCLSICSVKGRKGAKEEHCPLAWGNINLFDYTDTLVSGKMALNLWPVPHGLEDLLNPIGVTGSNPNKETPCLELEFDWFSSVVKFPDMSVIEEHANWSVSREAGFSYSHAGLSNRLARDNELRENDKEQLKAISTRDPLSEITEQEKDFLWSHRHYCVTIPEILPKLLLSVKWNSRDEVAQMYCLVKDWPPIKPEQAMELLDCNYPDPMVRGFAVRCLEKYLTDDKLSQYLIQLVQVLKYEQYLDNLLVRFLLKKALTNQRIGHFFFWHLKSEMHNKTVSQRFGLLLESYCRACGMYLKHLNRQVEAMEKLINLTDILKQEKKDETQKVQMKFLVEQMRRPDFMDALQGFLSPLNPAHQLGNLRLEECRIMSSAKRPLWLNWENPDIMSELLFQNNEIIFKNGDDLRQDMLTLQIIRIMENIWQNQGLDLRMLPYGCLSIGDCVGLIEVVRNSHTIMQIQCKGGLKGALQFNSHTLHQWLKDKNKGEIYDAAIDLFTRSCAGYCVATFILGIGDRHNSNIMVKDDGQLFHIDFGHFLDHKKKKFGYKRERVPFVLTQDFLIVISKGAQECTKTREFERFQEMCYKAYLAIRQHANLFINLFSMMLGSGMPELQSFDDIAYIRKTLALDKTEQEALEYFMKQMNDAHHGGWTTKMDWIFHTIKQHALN

PIK3CD (Human), sequence (O00329 whole entry, looked up): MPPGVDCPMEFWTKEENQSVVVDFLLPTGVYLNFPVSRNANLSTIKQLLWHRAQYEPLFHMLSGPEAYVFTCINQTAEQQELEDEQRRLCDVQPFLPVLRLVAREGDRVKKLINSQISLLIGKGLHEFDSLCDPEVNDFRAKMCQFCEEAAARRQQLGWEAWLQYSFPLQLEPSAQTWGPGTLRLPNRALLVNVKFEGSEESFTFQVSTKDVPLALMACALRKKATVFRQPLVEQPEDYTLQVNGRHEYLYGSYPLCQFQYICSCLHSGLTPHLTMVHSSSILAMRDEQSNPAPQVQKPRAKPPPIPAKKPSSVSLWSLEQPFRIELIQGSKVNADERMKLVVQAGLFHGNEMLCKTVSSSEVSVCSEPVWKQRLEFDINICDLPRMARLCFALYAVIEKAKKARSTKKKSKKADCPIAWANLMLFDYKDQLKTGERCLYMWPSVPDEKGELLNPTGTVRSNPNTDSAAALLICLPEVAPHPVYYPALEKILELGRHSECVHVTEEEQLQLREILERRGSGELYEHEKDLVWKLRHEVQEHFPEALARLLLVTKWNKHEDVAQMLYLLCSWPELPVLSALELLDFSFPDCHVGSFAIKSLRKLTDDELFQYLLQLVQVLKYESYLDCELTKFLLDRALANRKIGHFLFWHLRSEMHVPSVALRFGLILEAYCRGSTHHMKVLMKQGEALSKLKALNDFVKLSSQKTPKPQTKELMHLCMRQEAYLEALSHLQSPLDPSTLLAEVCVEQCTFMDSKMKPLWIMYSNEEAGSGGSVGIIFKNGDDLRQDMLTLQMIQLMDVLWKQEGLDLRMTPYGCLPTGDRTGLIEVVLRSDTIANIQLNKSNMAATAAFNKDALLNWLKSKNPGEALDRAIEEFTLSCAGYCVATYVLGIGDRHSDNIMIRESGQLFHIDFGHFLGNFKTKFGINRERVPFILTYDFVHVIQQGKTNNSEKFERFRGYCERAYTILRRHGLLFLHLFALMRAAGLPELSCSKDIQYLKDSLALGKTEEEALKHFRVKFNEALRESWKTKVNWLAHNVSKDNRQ
PIK3CB (Human), sequence (P42338 whole entry, looked up): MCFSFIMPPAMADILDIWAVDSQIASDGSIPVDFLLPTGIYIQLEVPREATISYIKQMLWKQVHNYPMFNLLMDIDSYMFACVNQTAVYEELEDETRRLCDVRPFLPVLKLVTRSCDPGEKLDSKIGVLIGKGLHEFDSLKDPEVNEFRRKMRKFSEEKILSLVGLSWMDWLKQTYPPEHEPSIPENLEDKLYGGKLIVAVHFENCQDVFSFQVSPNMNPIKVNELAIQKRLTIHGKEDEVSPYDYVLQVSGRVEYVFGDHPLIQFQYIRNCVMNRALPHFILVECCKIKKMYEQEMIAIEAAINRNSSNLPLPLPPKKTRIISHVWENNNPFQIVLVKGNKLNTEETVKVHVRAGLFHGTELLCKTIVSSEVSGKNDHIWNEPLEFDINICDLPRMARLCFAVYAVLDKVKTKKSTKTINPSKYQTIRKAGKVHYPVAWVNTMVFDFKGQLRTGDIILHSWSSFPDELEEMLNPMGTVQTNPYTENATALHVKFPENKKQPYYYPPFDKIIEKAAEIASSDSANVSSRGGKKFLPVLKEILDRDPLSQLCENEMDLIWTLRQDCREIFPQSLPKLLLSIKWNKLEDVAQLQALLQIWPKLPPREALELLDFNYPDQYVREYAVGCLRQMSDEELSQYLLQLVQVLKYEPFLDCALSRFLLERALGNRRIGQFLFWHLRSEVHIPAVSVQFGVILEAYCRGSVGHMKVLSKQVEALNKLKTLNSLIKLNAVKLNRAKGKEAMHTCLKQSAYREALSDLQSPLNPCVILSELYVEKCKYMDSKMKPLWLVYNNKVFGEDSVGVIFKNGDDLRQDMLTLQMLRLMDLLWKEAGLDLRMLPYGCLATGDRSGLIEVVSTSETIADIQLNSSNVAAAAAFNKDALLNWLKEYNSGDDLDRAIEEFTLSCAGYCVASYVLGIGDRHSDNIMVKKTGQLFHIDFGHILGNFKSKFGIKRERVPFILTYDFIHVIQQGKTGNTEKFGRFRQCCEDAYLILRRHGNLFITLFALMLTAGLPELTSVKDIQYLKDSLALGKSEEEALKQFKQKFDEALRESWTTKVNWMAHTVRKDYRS

In general, IC50 refers to the midpoint of a concentration-inhibition curve. Read a low IC50 as inhibition by little substance. On to `COc1cccc2c1nc(C(F)F)n2-c1nc(N2CCOCC2)c2cnn(C3CCN(S(=O)(=O)CCN(C)C)CC3)c2n1`, for which the IC50 is 100 to 1000 nM against PIK3CB (Human), 100 to 1000 nM against PIK3CD (Human) and < 100 nM against PIK3CA (human).
On to `COc1cccc2c1nc(C(F)F)n2-c1nc(N2CCOCC2)nc(N2CCC[C@H](N(CCCN(C)C)S(C)(=O)=O)C2)n1`, for which the half-inhibitory concentration (IC50) against PIK3CD (Human) and on PIK3CA (human) was 100 to 1000 nM throughout.
Regarding `COc1cccc2c1nc(C(F)F)n2-c1nc(N2CCOCC2)nc(N(CCCN(C)C)C2CCN(S(=O)(=O)CCl)CC2)n1`, the IC50 on PIK3CD (Human) is < 100 nM; at PIK3CA (human) it was 100 to 1000 nM.
With `COc1cccc2c1nc(C(F)F)n2-c1nc(OC2CCN(S(=O)(=O)CCN3CCOCC3)CC2)nc(N2CCOCC2)n1`, the IC50 on PIK3CD (Human) and on PIK3CA (human) was < 100 nM throughout.
Regarding `CN(C)CCCOc1cccc2c1nc(C(F)F)n2-c1nc(OC2CCN(S(C)(=O)=O)CC2)nc(N2CCOCC2)n1`, the IC50 at PIK3CD (Human) and at PIK3CA (human) was 100 to 1000 nM each time.
On to `COc1cccc2c1nc(C(F)F)n2-c1nc(-c2ccc(S(=O)(=O)N3CCN(C)CC3)cc2)nc(N2CCOCC2)n1`, for which, at PIK3CA (human), the IC50 lay within 100 to 1000 nM.
For `COc1cccc2c1nc(C(F)F)n2-c1nc(-c2ccc(N(C)S(=O)(=O)CCN(C)C)cc2)nc(N2CCOCC2)n1`, the IC50 at PIK3CD (Human) and at PIK3CA (human) was 100 to 1000 nM throughout.
Regarding `COc1cc(N)cc2c1nc(C(F)F)n2-c1nc(N2CCOCC2)nc(N2CCN(S(=O)(=O)CCN(C)C)CC2)n1`, the IC50 against PIK3CB (Human) was 100 to 1000 nM; on PIK3CD (Human), < 100 nM; at PIK3CA (human), < 100 nM.
In the case of `CN(C)CCS(=O)(=O)N1CCN(c2nc(N3CCOCC3)nc(-n3c(C(F)F)nc4ccccc43)n2)CC1`, the IC50 against PIK3CD (Human) and at PIK3CA (human) was 100 to 1000 nM throughout.
